Results from patent publication US20250346582A1, “SPLEEN TYROSINE KINASE INHIBITORS AND METHODS OF USE THEREOF” (THE BOARD OF TRUSTEES OF THE UNIVERSITY OF ILLINOIS, priority 2022, published 2025).

Columns and labels:
PLCγ2-cSH2 = target: T1, PLCγ2-cSH2 (Homo sapiens, UniProt P16885); experiment: Fluorescence quenching vesicle binding assay, PLCγ2-cSH2; conditions: Table 4; POPC/POPS/PIP3/dabsyl-PE (67:20:3:10) vesicles (40 μM); read-out: Imax (%)
T1 construct: polyhistidine (N); made in house; host or cells: Escherichia coli BL21 (DE3) pLysS
T1 sequence (P16885 646-735 limits assumed): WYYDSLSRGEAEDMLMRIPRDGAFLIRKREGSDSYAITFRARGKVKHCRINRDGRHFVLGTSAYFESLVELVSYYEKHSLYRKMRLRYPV
Method: The membrane-binding assay is based on fluorescence quenching of EGFP fused to a SH2 domain by a dark quencher containing lipid, dabsyl-PE, incorporated in lipid vesicles. The plate reader assay was performed using the Synergy™ Neo spectrofluorometer at 25° C. Nontreated black polystyrene 96-well plates (Corning) were used. Protein (10-50 nM) with the increasing concentration of vesicles with a given lipid composition in 20 mM Tris buffer, pH 7.4, containing 0.16 M NaCl was added to each row of wells and the EGFP fluorescence emission at 516 nm was measured with excitation set at 485 nm. Z′ factor for the assay system was determined as described^74. Imax and IC50 values of inhibitors were determined using the equation, I=Imax/(1+IC50/[I]) where I and [I] indicate % inhibition and inhibitor concentration, respectively. The average and standard deviation values were obtained from triplicate determinations.
We also optimized a recently developed fluorescence quenching-based lipid-binding assay^47 for high-throughput screening of these molecules for their inhibitory activity against the PIP3-SH2 interaction. Specifically, we expressed SH2 domains as EGFP-tagged proteins and directly quantified their membrane binding by monitoring the quenching of EGFP fluorescence emission intensity by a dark quencher-containing lipid, N-dimethylaminoazo-benzenesulfonyl-phosphatidylethanolamine (dabsyl-PE), incorporated in the vesicles. We then screened for compounds that inhibited binding of Syk-cSH2, BLNK-SH2, and PLCγ2-cSH2, respectively, to 1-palmitoyl-2-oleoyl-PC (POPC)/1-palmitoyl-2-oleoyl-PS (POPS)/PIP3/dabsyl-PE (67:20:3:10) vesicles while eliminating those that inhibit their non-specific binding to anionic POPC/POPS/dabsyl-PE (70:20:10) vesicles. The quality of the screening system was evaluated using 1% dimethylsulfoxide (DMSO) and 20 μM D-myo-inositol-1,3,4,5-tetraphosphate (IP4) as negative and positive controls, respectively. The clear separation of positive and negative control data and the average Z′-factor of 0.7 supported the robustness of our system for high-throughput screen of PIP3-SH2 interaction inhibitors.

[1] = tested on: phosphorylation of Syk, STAT3/5 and ERK1/2; experiment: Western blot of IgG2-stimulated phosphorylation in MV4-11 AML cells; format: cell-based; conditions: MV4-11 cells, 5 μM overnight
Method: FIGS. 2A-2D show the inhibition of the signaling activity and proliferation of MV4-11 AML cells by Syk-cSH2 inhibitors. […] GAPDH was used as a gel loading control. […] Imax and IC50 values were determined by non-linear least-squares analysis of data using the equation: I=Imax/(1+IC50/[inhibitor]) where I indicates % inhibition at a given inhibitor concentration ([inhibitor]). (c) Inhibition of IgG2-stimulated phosphorylation of Syk, STAT3/STAT5 and ERK1/2 in entospletinib-resistant MV-4-11 cells by 5 μM of WC35, WC36, and WC38.
(§1) Cells were seeded at a density of 3.0×10^5 cells/well prior to incubation with inhibitors. Cells were incubated with 1-5 μM of Syk inhibitors overnight and stimulated with different antibodies: IgG2 for AML cells, IgM for Raji B cells, and OKT3 (Biolegend) for Jurkat cells. The cells were lysed in NP40 lysis buffer (50 mM Tris, pH 7.5, 150 mM NaCl, 1 mM EDTA, 1% NP40, 10% glycerol, 10 mM NaF, 10 mM Na3VO4, and the protease inhibitor cocktail) at 4° C. and the cell debris was removed by centrifugation. Samples were analyzed by SDS-PAGE. Proteins were separated and transferred to Immobilon-P polyvinylidene difluoride membrane (Millipore Sigma). The membrane was blocked with 5% bovine serum albumin for 1 h and incubated overnight at 4° C. with various antibodies (1:1000 dilution for all antibodies). After the unbound antibodies were removed by washing with 0.1% Tris buffer saline with 0.1% Tween20, the membranes were incubated with the horseradish peroxidase secondary antibody (1:5000 dilution) for 1 h at room temperature. The membranes were washed three more times with 0.1% Tris buffer saline with 0.1% Tween20 to remove the unbound horseradish peroxidase secondary antibody before imaging. The chemiluminescence intensity of protein bands in the gel was analyzed and documented by the Azure 500Q Imaging System.

[2] = tested on: phosphorylation of Syk, ERK1/2 and STAT3/5; experiment: Western blot of phosphorylation in entospletinib-resistant MV4-11 cells; format: cell-based; conditions: 5 μM
Method: as §1
Then the concentration was maintained at 5 μM.

[3] = tested on: phosphorylation of ERK1/2 and STAT3/5; experiment: Western blot of phosphorylation in HL60 cells; format: cell-based; conditions: RAS-mutated HL60 cells; 5 μM
Method: FIGS. 3A-3D show the inhibition of the signaling activity and proliferation of HL-60 AML cells by Syk-cSH2 inhibitors. […] DMSO was used as a negative control and GAPDH as a gel loading control. […] (c) Inhibition of phosphorylation of Syk, STAT3/5 and ERK1/2 in patient-derived primary AML cells by WC36. Cells were cultured overnight in the presence of CD34+ cytokine supplement. DMSO was used as a negative control. Representative data from one (Patient 1) of four patient samples are shown here. (d) Inhibition of the proliferation of four patient AML cells by WC36 measured by the colony growth assay. The number of colonies after WC36 treatment was normalized to the enumerated colonies after DMSO treatment.
as §1

SMILES | Emax (PLCγ2-cSH2) [%] | inhibition of phosphorylation of Syk, STAT3/5 and ERK1/2 [1] | inhibition of phosphorylation of Syk, ERK1/2 and STAT3/5 [2] | inhibition of phosphorylation of ERK1/2 and STAT3/5 [3]
[N-]=[N+]=C(C(=O)OC1CCCCC1)C(Nc1ncccn1)c1ccc[nH]1 (racemic) [WC38, Cyclohexyl 2-diazo-3-(pyrimidin-2-ylamino)-3-(1H-pyrrol-2-yl)propanoate] | < 10 | suppressed phosphorylation of Syk and STAT3/5 as potently as entospletinib but were modestly less active than entospletinib for ERK1/2 inhibition | significantly less active than WC36 | less active then WC36
[N-]=[N+]=C(C(=O)OC1CCCCC1)C(Nc1ncccn1)c1c[nH]c2ccccc12 (racemic) [WC36, Cyclohexyl 2-diazo-3-(1H-indol-3-yl)-3-(pyrimidin-2-ylamino)propanoate] | < 10 | suppressed phosphorylation of Syk and STAT3/5 as potently as entospletinib but were modestly less active than entospletinib for ERK1/2 inhibition | potently suppressed the phosphorylation and activation of Syk, ERK1/2, and STAT3/5 | potent against phosphorylation of ERK1/2 and STAT3
[N-]=[N+]=C(C(=O)OC1CCCCC1)C(Nc1ncccn1)c1ccco1 (racemic) [WC35, Cyclohexyl 2-diazo-3-(furan-2-yl)-3-(pyrimidin-2-ylamino)propanoate] | < 10 | less active than entospletinib for both Syk and ERK1/2 inhibition | significantly less active than WC36 | less active then WC36
